Source: patent US10087142B2, “Azetidine derivatives useful as modulators of cortical cathecolaminergic neurotransmission” (Integrative Research Laboratories Sweden AB, priority 2015, dated 2018)

What was measured:
Arc mRNA = test: m-RNA analysis: Arc mRNA tissue levels in brain regions; format: in vivo, rat; conditions: 33 μmol/kg s.c., rats, 65 min before sacrifice, n = 5; for Arc frontal cortex ± SEM: frontal cortex tissue; for Arc striatum ± SEM: striatum tissue
Procedure: Sesack et al. (Anatom Substr Glut-Dopamine Inter. Annals of NY AcadSci, 2003, 1003; 36-52) discloses that the dopaminergic systems of the brain interact strongly with central glutamate neurotransmission. To investigate potential effects of compounds as disclosed herein on cortical and striatal NMDA type glutamate receptor related synaptic signaling, Arc mRNA induction was assessed upon acute administration. Arc (Arc/Arg3.1-activity regulated cytoskeleton-associated protein/activity-regulated gene 3.1; (Link W et al., Proc Natl Acad Sci, USA, 1995, 92; 5734-8 and Lyford G L et al., Neuron, 1995, 14; 433-45), is an immediate early gene (IEG), induced by synaptic activity, whose expression and localization at synaptic sites is triggered specifically by NMDA receptor activation and strongly related to neural plasticity (Steward and Worley, Neuron, 2001, 30; 227-40, Kawashima et al., PNAS, 2009, 106(1); 316-21 and Bramham et al., Exp Brain Res, 2010, 200; 125-40).
[…] were dissected into […] different areas: Limbic system (containing nucleus accumbens, most parts of the olfactory tubercle, ventral pallidum), striatum, frontal cortex, hippocampus and the remaining cortex.
Total RNA was prepared by the guanidin isothiocyanate method (Chomczynski P and Sacchi N, Anal Biochem, 1987, 162(1); 156-9). RNA pellets were solved in RNAse-free water and stored at −80° C. The sample concentration was determined spectrophotometrically by a NanoDrop ND1000 (Saveen Werner). A quality indicator number and an integrity number of r-RNA were measured with an Experion (Bio-rad).
A two-step reversed transcription was performed by using a SuperScript III kit (Invitrogen). 1 μg of total RNA was reverse transcribed with 5 μl 2×RT Reaction Mix, 1 μl RT Enzyme Mix, in a total volume adjusted to 10 μl with DEPC-treated water. 1 U of E. coli RNase H was added. c-DNA was diluted 40 times and stored at −20° C.
Three sequences (one gene of interest and two reference genes) were amplified together in a triplex PCR-reaction. For real-time PCR measurements: 5 μl of c-DNA reaction was amplified in a 20 μl reaction mixture containing 10 μl PerfeCta Multiplex qPCR Supermix (Quanta, VWR), 3.5 μl RNAse-free water, 0.15 μM of each primer and 0.1 μM of each probe. Real-time PCR was measured on CFX96 (Bio-rad) using the following settings for all genes: 3 min pre-incubation at 95° C. followed by 40 cycles of denaturation at 95° C. for 15 s, annealing and elongation at 60° C. for 1 minute.
Reference genes are HPRT and cyclophilin.
The primer and probe sequences are as follows for measuring of arc:
Correct PCR products are confirmed by agarose gel electrophoresis (2%) PCR products are purified with PCR purification kit from Qiagen (Valencia, Calif., USA). All genes are sequenced at MWG, Germany. […]

[1] = system: non-pre-treated Sprague-Dawley rats; test: Locomotor activity in drug-naïve rats (behaviour test); format: in vivo, rat; conditions: recorded 60 minutes, n = 5
Procedure: The effect of compounds in the present disclosure on locomotor activity in drug-naïve rats was also investigated. The animals were placed in the motility meters immediately after drug administration and locomotor activity was recorded for 60 minutes (counts/60 min±SEM). The results are presented as percent of control.
Behavioural activity was measured using eight Digiscan activity monitors (RXYZM (16) TAO, Omnitech Electronics, Columbus, Ohio, USA), connected to an Omnitech Digiscan analyzer and an Apple Macintosh computer equipped with a digital interface board (NB DIO-24, National Instruments, USA). Each activity monitor consisted of a quadratic metal frame (W×L=40 cm×40 cm) equipped with photo beam sensors. During measurements of behavioural activity, a rat was put in a transparent acrylic cage (W×L×H, 40×40×30 cm) which in turn was placed in the activity monitor. Each activity monitor was equipped with three rows of infrared photo beam sensors, each row consisting of 16 sensors. Two rows were placed along the front and the side of the floor of the cage, at a 90° angle, and the third row was placed 10 cm above the floor to measure vertical activity. Photo beam sensors were spaced 2.5 cm apart. Each activity monitor was fitted in an identical sound and light attenuating box containing a weak house light and a fan.
The computer software was written using object oriented programming (LabVIEW™, National instruments, Austin, Tex., USA).
Behavioural data from each activity monitor, representing the position (horizontal center of gravity and vertical activity) of the animal at each time, were recorded at a sampling frequency of 25 Hz and collected using a custom written LABView™ application. The data from each recording session were stored and analyzed with respect to distance traveled. Each behavioural recording session lasted 60 min, starting approximately 5 min after the injection of test compound.
Compounds disclosed herein have been tested for effects on spontaneous locomotor activity in non-pre-treated Sprague-Dawley rats (based on accumulated distance traveled 0-60 min post dosing), and with doses up to 33 μmol/kg (s.c.).

SMILES	Arc frontal cortex ± SEM (Arc mRNA)	Arc striatum ± SEM (Arc mRNA)	locomotor activity, percent of control means ([1]; 11 μmol/kg s.c.) [%]	locomotor activity, percent of control means ([1]; 33 μmol/kg s.c.) [%]
Fc1cc(F)cc(C(F)C2CNC2)c1.O=C(O)/C=C/C(=O)O (single isomer, unassigned; (-)) [Example 3, (−)-3-[(3,5-Difluorophenyl)(Fluoro)Methyl]Azetidine Fumarate Salt]	137 ± 6% of control means	90 ± 7% of control means	68	46
Cl.Fc1cccc(C(F)C2CNC2)c1F (single isomer, unassigned; (-)) [Example 1, (−)-3-[(2,3-Difluorophenyl)(Fluoro)Methyl]Azetidine Hydrochloric Acid Salt]	169 ± 8% of control means	133 ± 9% of control means	61	91
